Measurements from patent publication US4605672A, “Diethylaminoalkoxybenzhydrol derivatives, process for their preparation and pharmaceutical compositions containing them” (Richter Gedeon Vegyeszeti Gyar Rt., priority 1982, dated 1986).

How the values were obtained:
ethanolic narcosis [1] = experiment: Ethanolic narcosis period (ethanol 3.5 g./kg. i.p.); assay type: in vivo, Wistar rats; conditions: 1 h before ethanol 3.5 g./kg. i.p., n=10, control = 100 ± 6.5
Procedure: The effect of the compounds according to the invention on ethanolic narcosis was tested on male and female Wistar rats, each weighing 160 to 180 g., in groups of 10. The animals were fasted for 16 hours prior to treatment and were then administered various doses of the test compound, orally. One hour after treatment the rats were treated with 3.5 g./kg. of ethanol intraperitoneally (i.p.). The narcosis period of the animals was measured from the elapse of the righting reflex until a spontaneous correction of the body position. The average of the narcosis period and the percentage difference from the control were calculated. […] The control group was treated with a placebo and a […]. dose of ethanol.

ethanolic ataxia = experiment: Ethanolic ataxia and muscular tension on rotating rod; assay type: in vivo, BALB/c mice; conditions: n=10
Procedure: The effect of the compounds according to the invention on ethanolic ataxia and the change of muscular tension was tested on rotating rods. Trained and selected male and female BALB/c mice weighing 16 to 18 g. each were administered a 40 mg./kg. oral dose of the test compounds one hour before intraperitoneal administration of 2.5 g./kg. of ethanol. The time until the animals could remain on the rod was measured 60, 90 and 120 minutes after the ethanolic treatment. This time was 120 minutes for the animals with intact coordination. The results are summarized in Table 3, where the percentage of the animals remaining on the rotating rod is indicated.

[2] = tested on: hyperactivity induced by ethanol; experiment: Hyperactivity induced by ethanol (locomotor activity, Animex BSE motimeter); assay type: in vivo, BALB/c mice; conditions: n=15
Procedure: The effect of the compounds on hyperactivity induced by ethanol was tested on male and female BALB/c mice, each weighing 16 to 18 g. The test materials were administered to groups of 15 orally, one hour before administering the placebo orally or a 2 g./kg. dose of ethanol intraperitoneally. The control animals were treated with the placebo. The locomotor activity of the animals was measured for two hours, using an Animex BSE motimeter.

[3] = tested on: hypothermia induced by reserpin; experiment: Inversion of reserpin-hypothermia (antireserpin activity); assay type: in vivo, male CFLP mice; conditions: Mus musculus, po; mice; orally, 16 hours after reserpin 5 mg./kg. i.p.; dose increasing body temperature by 50%
Procedure: (§1) To determine the antidepressive activity of the compounds provided by the invention the inhibition of catalepsy induced by tetrabenazine and the inversion of hypothermia induced by reserpin were measured. The anticholinergic activity was tested by determining the inhibition of tremor induced by oxotremorin. As a reference compound imipramine was used.
The inversion of reserpin-hypothermia was tested on male CFLP mice, weighing 18 to 22 g. each and treated with a 5 mg./kg. dose of reserpin intraperitoneally. 16 hours after treatment the animals were administered various doses of the test compounds, orally. The rectal temperature of the animals was measured before the reserpin treatment, 16 hours after treatment and 2 hours after the administration of the test compounds.

[4] = tested on: catalepsy induced by tetrabenazine; experiment: Inhibition of catalepsy induced by tetrabenazine; assay type: in vivo, Hann.-Wistar rats; conditions: Rattus norvegicus, po; rats; orally, 60 minutes before tetrabenazine 30 mg./kg. i.p.; probit analysis
Procedure: as §1

Acute toxicity = conditions: rat, in vivo; rats; single 500 mg./kg. oral dose; observed for 14 hours; read-out: Toxicity, dead animals (%)
Procedure: The acute toxicity of the compounds according to the invention was determined on Hann.-Wistar rats of both sexes, weighing 160 to 180 g. each, which had been treated with a single 500 mg./kg. dose of the test compounds, orally. […] In Table 4 the percentage of the dead animals is given.

[5] = tested on: tremor induced by oxotremorin; experiment: Anticholinergic activity: inhibition of tremor induced by oxotremorin; assay type: in vivo, male CFLP mice; conditions: mice, oral; for ED50: Mus musculus, oxotremorin 0.5 mg./kg. i.p., read-out: Oxotremorin inh. (ED50); for Oxotremorin inh. (result in words): remark to the printed 160.0 mg./kg.
Procedure: as §1
The anticholinergic activity was tested on male CFLP mice, weighing 18 to 22 g. each, which were treated with a 0.5 mg./kg. dose of oxotremorin (i.p.) and after 60 minutes with various oral doses of the test compounds.

ethanolic narcosis [6] = conditions: known effect of the reference material; cited from earlier work

SMILES	Ethanolic narcosis period (Control ± S.E. %) (ethanolic narcosis [1]; 10.0 mg./kg. orally) [%]	Ethanolic narcosis period (Control ± S.E. %) (ethanolic narcosis [1]; 40.0 mg./kg. orally) [%]	ED50 [3] [mg/kg]	ED50 [4] [mg/kg]	mortality at 14 h (Acute toxicity) [%]	ED50 [5] [mg/kg]	Oxotremorin inh. (result in words) [5]	other results
CCN(CC)CCCOc1ccc(C(O)(CC)c2cccc(C(F)(F)F)c2)cc1 (stereo not drawn) [A, 3-trifluoromethyl-4'-[3-(diethylamino)-propoxy]-α-ethyl-benzhydrol]	52 ± 11.1	40 ± 5.0	–	–	–	–	–	–
CCN(CC)CCOc1ccc(C(O)(CC)c2ccc(Cl)cc2)cc1 (stereo not drawn) [B, 4-chloro-4'-[2-(diethylamino)-ethoxy]-α-ethyl-benzhydrol]	48 ± 9.5	39 ± 4.5	–	–	–	–	–	% of the animals remaining on the rod (ethanolic ataxia; compound 40.0 mg./kg. orally + ethanol 2500.0 mg./kg. i.p., 60 minutes, ethanol alone 10): 40%; % of the animals remaining on the rod (ethanolic ataxia; compound 40.0 mg./kg. orally + ethanol 2500.0 mg./kg. i.p., 90 minutes, ethanol alone 40): 70%; % of the animals remaining on the rod (ethanolic ataxia; compound 40.0 mg./kg. orally + ethanol 2500.0 mg./kg. i.p., 120 minutes, ethanol alone 50): 90%; % of the animals remaining on the rod (ethanolic ataxia; compound 40.0 mg./kg. orally, no ethanol, 60 minutes): 100%; % of the animals remaining on the rod (ethanolic ataxia; compound 40.0 mg./kg. orally, no ethanol, 90 minutes): 100%; % of the animals remaining on the rod (ethanolic ataxia; compound 40.0 mg./kg. orally, no ethanol, 120 minutes): 100%; Locomotor activity (2 hours) ([2]; compound 10.0 mg./kg. orally + ethanol 2000.0 mg./kg. i.p., ethanol + placebo 190 ± 12.2): 110 ± 8.1 percentage of the control; Locomotor activity (2 hours) ([2]; compound 10.0 mg./kg. orally + placebo (no ethanol), placebo control 100 ± 8.1): 110 ± 15.2 percentage of the control
CCN(CC)CCOc1ccc(C(O)(CC)c2ccc(C(F)(F)F)cc2)cc1 (stereo not drawn) [C, 4-trifluoromethyl-4'-[2-(diethylamino)-ethoxy]-α-ethyl-benzhydrol]	–	–	30	20	0	160	ineffective	–
CCN(CC)CCCOc1ccc(C(O)(CC)c2cccc(Cl)c2)cc1 (stereo not drawn) [D, 3-chloro-4'-[3-(diethylamino)-propoxy]-α-ethyl-benzhydrol]	–	–	17	18.8	0	160	ineffective	–
CN(C)CCCN1c2ccccc2CCc2ccccc21 [Imipramine, reference compound]	–	–	15	13.7	80	50	–	–
N[C@@H](CS)C(=O)O [L-cysteine, reference compound]	–	–	–	–	–	–	–	Ethanolic narcosis period (Control ± S.E. %) (ethanolic narcosis [1]; 500.0 mg./kg. orally): 63 ± 4.2%; alcoholic narcosis reducing effect (ethanolic narcosis [6]): known to have an alcoholic narcosis reducing effect
